Source: patent US6447749B1, “Perfluoro-alkyl containing dye molecules and galencial formulations” (Schering Aktiengesellschaft, priority 1999, dated 2002)

Columns and labels:
[1] = Photophysical characterization: fluorescence properties and fluorescence quantum yield (SPEX-fluorolog, relative to indocyanine green); format: physicochemical
Experimental: (§1) The determination of the absorption maxima and extinction coefficients was carried out with a Lambda 2-spectrometer (Perkin-Elmer Company). The fluorescence properties were determined on a SPEX-fluorolog (Instruments S. A. Company, photomultiplier Hamamatsu PM928, excitation 350W xenon lamp). the determination of the fluorescence quantum yield was carried out relative to indocyanine green (O=13% in DMSO) by excitation at 585 nm (dyes with p=2) or 685 nm (dyes with p=3), in each case of solutions of concentration 2 μM in dye, and correction with the spectral sensitivity of lamp and detector.

popliteal lymph node = assay: Localization in lymph nodes by fluorescence microscopy on frozen sections; format: in vivo; conditions: guinea pig popliteal lymph node; four hours after interstitial administration; formulation 5 mol % of dye 8/95 mol % Gd complex; untreated animals no fluorescence
Experimental: The localization of the formulations according to the invention in lymph nodes was studied by fluorescence microscopy on frozen sections of the lymph nodes. In this respect, the lymph nodes were prepared after the lymphography and deep-frozen at −80° C. Sections with a 5 μm thickness were produced on a freezing microtome. The evaluation was carried out on a Zeiss Axiovert 135-fluorescence microscope, which was equipped with a Cy 7-(excitation filter HQ710/70 nm, emission filter 810/90 nm, beam splitter 750 nm LP). From all the preparations, white light and fluorescence images were recorded with a CCD camera (Princeton Instruments RTE/CCD-576) and stored digitally.
Images of a cryosection from a popliteal lymph node of an untreated guinea pig in bright field (3c) and in near-infrared-fluorescence (3d) are shown for comparison.

[2] = Photophysical characterization: absorption maxima and extinction coefficients (Lambda 2-spectrometer); format: physicochemical
Experimental: as §1

regional lymph nodes [3] = assay: Coloring of regional lymph nodes after interstitial administration; format: in vivo; conditions: guinea pig; formulation 5 mol % of dye 8/95 mol % Gd complex; after interstitial/intracutaneous administration, lymph nodes prepared ex vivo; listed as 8, sodium salt
Experimental: After the interstitial near-infrared lymphography was completed, the regional lymph nodes were prepared in the area of the administration site. […] This coloring can be used for the intraoperative diagnosis for the identification of the draining lymph nodes of a certain tissue area and for differentiating the lymph nodes from the surrounding tissue.

regional lymph nodes [4] = assay: Interstitial near-infrared lymphography of guinea pigs; format: in vivo; conditions: guinea pig, formulation 5 mol % of dye 8/95 mol % Gd complex, interstitial/intracutaneous, 0.3 μmol/kg of 8
Experimental: The imaging properties of the formulations according to the invention were studied in vivo in guinea pigs. […] The fluorescence of the substances was stimulated by irradiation of the animals with near-infrared light of wavelength 740 nm, which was produced with an Nd:YAG laser. The fluorescence radiation was detected at a wavelength of >800 nm by an intensified CCD-camera, and the fluorescence images were stored digitally.
0.1 ml of a stock solution with 1 mmol/L of 8 was injected into a skin fold between the toes of the right rear extremity, and the final concentration was 0.3 μmol/kg of 8.

lymph nodes [5] = assay: Fluorescence coloring of lymph nodes after interstitial administration (monosaccharide formulation); format: in vivo; conditions: 5 mol % of dye 8 and 95 mol % mannopyranosyl perfluoroalkyl amide
Experimental: From the substance, 0.1 ml of a solution that contained 1 mmol/L of dye 8 and 19 mmol/L of 6-[1-O-α-D-mannopyranosyl]-hexanoic acid N-(3-oxa-1H,1H,2H,2H,4H,4H,5H,5H-perfluorotridecyl)-amide was administered interstitially in a skin fold between the toes of the right rear extremity of the animal. Five hours after administration, the lymph nodes of the right and left sides of the body were prepared, and a fluorescence image was recorded. The fluorescence of the substances was stimulated by irradiation of the lymph nodes with near-infrared light of wavelength 740 nm, which was produced with an Nd:YAG laser. The fluorescence radiation was detected at a wavelength of >800 nm by an intensified CCD-camera, and the fluorescence images were stored digitally.

lymph nodes [6] = assay: Visualization of lymph nodes in situ after interstitial administration; format: in vivo, rat; conditions: five hours after interstitial administration
Experimental: 0.1 ml of a formulation that contained 1 mmol/L of dye 8 and 19 mmol/L of 6-[1-O-α-D-mannopyranosyl)-hexanoic acid N-(3-oxa-1H,1H,2H,2H,4H,4H,5H,5H-perfluorotridecyl)-amide was administered interstitially in a skin fold between the toes of the right rear extremity. Five hours after administration, the test animal was sacrificed and opened abdominally. Based on the fluorescence image, the lymph nodes can be localized in situ and the lymph tracts can be visualized. […] The fluorescence of the substances was stimulated by irradiation of the abdominally-opened animal with near-infrared light of wavelength 740 nm, which was produced with an Nd:YAG laser. The fluorescence radiation was detected at a wavelength of >800 nm by an intensified CCD-camera, and the fluorescence images were stored digitally.

[7] = dyes 7-14 table, formulation with Gd-complex perfluoroalkyl derivative (WO 97/26017 Ex. 33), 5 mol % of dye
[8] = formulation with Gd-complex perfluoroalkyl derivative (WO 97/26017 Ex. 33), 1 mol % of dye
[9] = formulation with Gd-complex perfluoroalkyl derivative (WO 97/26017 Ex. 33), 2 mol % of dye
[10] = formulation with Gd-complex perfluoroalkyl derivative (WO 97/26017 Ex. 33), 5 mol % of dye
[11] = formulation with Gd-complex perfluoroalkyl derivative (WO 97/26017 Ex. 33), 10 mol % of dye
[12] = three-component formulation: 5 mol % of dye, 0 mol % of Gd complex, 95 mol % of monosaccharide
[13] = three-component formulation: 5 mol % of dye, 10 mol % of Gd complex, 85 mol % of monosaccharide
[14] = three-component formulation: 5 mol % of dye, 30 mol % of Gd complex, 65 mol % of monosaccharide
[15] = three-component formulation: 5 mol % of dye, 50 mol % of Gd complex, 45 mol % of monosaccharide
[16] = three-component formulation: 5 mol % of dye, 70 mol % of Gd complex, 25 mol % of monosaccharide
[17] = three-component formulation: 5 mol % of dye, 90 mol % of Gd complex, 5 mol % of monosaccharide
[18] = five hours after interstitial administration (right rear extremity)

CC1(C)C(=CC=CC=CC=CC2=[N+](CCCCS(=O)(=O)[O-])c3ccc(C(=O)N(CCOCCC(F)(F)C(F)(F)C(F)(F)C(F)(F)C(F)(F)C(F)(F)C(F)(F)C(F)(F)F)CC(O)CO)cc3C2(C)C)N(CCCCS(=O)(=O)[O-])c2ccccc21.[Na+] (centres unmarked) [Dye 10, 5-{N-[2-(3,3,4,4,5,5,6,6,7,7,8,8,9,9,10,10,10-heptadecafluorodecyloxy)ethyl]-N-(2,3-dihydroxypropyl)aminocarbonyl}-2-{7-[1,3-dihydro-3,3-dimethyl-1-(4-sulfobutyl)-2H-indol-2-ylidene]-1,3,5-heptatrienyl}-3,3-dimethyl-1-(4-sulfobutyl)-3H-indolium, internal salt, sodium salt]
Fluorescence max. [1, 7]: 788 nm | Fluorescence quantum yield ([1]; dyes 7-14 table, formulation with Gd-complex perfluoroalkyl derivative (WO 97/26017 Ex. 33), 5 mol % of dye, 2 μM in dye): 0.14 | Fluorescence max. [1, 8]: 784 nm | Fluorescence quantum yield ([1]; formulation with Gd-complex perfluoroalkyl derivative (WO 97/26017 Ex. 33), 1 mol % of dye, 2 μM in dye): 0.23 | Fluorescence max. [1, 9]: 785 nm | Fluorescence quantum yield ([1]; formulation with Gd-complex perfluoroalkyl derivative (WO 97/26017 Ex. 33), 2 mol % of dye, 2 μM in dye): 0.23 | Fluorescence max. [1, 10]: 788 nm | Fluorescence quantum yield ([1]; formulation with Gd-complex perfluoroalkyl derivative (WO 97/26017 Ex. 33), 5 mol % of dye, 2 μM in dye): 0.14 | Fluorescence max. [1, 11]: 790 nm | Fluorescence quantum yield ([1]; formulation with Gd-complex perfluoroalkyl derivative (WO 97/26017 Ex. 33), 10 mol % of dye, 2 μM in dye): 0.03 | Fluorescence maximum [1, 12]: 800 nm | Fluorescence quantum yield [1, 12]: 0.16 | Fluorescence maximum [1, 13]: 800 nm | Fluorescence quantum yield [1, 13]: 0.11 | Fluorescence maximum [1, 14]: 800 nm | Fluorescence quantum yield [1, 14]: 0.14 | Fluorescence maximum [1, 15]: 798 nm | Fluorescence quantum yield [1, 15]: 0.26 | Fluorescence maximum [1, 16]: 794 nm | Fluorescence quantum yield [1, 16]: 0.18 | Fluorescence maximum [1, 17]: 793 nm | Fluorescence quantum yield [1, 17]: 0.13 | near-infrared fluorescence of lymph node frozen sections (popliteal lymph node): pronounced fluorescence | Absorption max. [2, 7]: 753 nm | Extinction coefficient [2, 7]: 120,800 L mol^−1 cm^−1 | Absorption max. [2, 8]: 755 nm | Extinction coefficient [2, 8]: 150,500 L mol^−1 cm^−1 | Absorption max. [2, 9]: 755 nm | Extinction coefficient [2, 9]: 148,800 L mol^−1 cm^−1 | Absorption max. [2, 10]: 753 nm | Extinction coefficient [2, 10]: 120,800 L mol^−1 cm^−1 | Absorption max. [2, 11]: 751 nm | Extinction coefficient [2, 11]: 108,500 L mol^−1 cm^−1 | Absorption maximum [2, 12]: 760 nm | Extinction coefficient [2, 12]: 90500 L/mol/cm | Absorption maximum [2, 13]: 760 nm | Extinction coefficient [2, 13]: 102700 L/mol/cm | Absorption maximum [2, 14]: 760 nm | Extinction coefficient [2, 14]: 107900 L/mol/cm | Absorption maximum [2, 15]: 756 nm | Extinction coefficient [2, 15]: 108700 L/mol/cm | Absorption maximum [2, 16]: 756 nm | Extinction coefficient [2, 16]: 111100 L/mol/cm | Absorption maximum [2, 17]: 755 nm | Extinction coefficient [2, 17]: 112500 L/mol/cm | coloring of regional (inguinal) lymph nodes (regional lymph nodes [3]): clearly visible green-coloring | fluorescence signal at the injection site (regional lymph nodes [4]; abdominal view, 120 minutes after administration): strong fluorescence signal | fluorescence signal at the injection site (regional lymph nodes [4]; right lateral view, 117 minutes after administration): strong fluorescence signal | fluorescence signal of lymph nodes, left side of the body (lymph nodes [5]; [18]): no lymph nodes of the left side of the body | fluorescence signal of lymph nodes, right (administered) side of the body (lymph nodes [5]; [18]): Most lymph nodes of the right (administered) side of the body showed a fluorescence signal | coloring of the fluorescence-labeled lymph nodes (lymph nodes [5]; five hours after interstitial administration): greenish-colored | visualization of lymph nodes and lymph tract in situ by fluorescence (lymph nodes [6]; abdominally-opened rat, 0.1 ml of 1 mmol/L dye 8 and 19 mmol/L mannopyranosyl perfluoroalkyl amide): visualized based on a fluorescence signal | visual coloring of lymph nodes in situ (lymph nodes [6]; rat, 5 mol % of dye 8 and 95 mol % mannopyranosyl perfluoroalkyl amide): green coloring
